Measurements: patent publication US8940739B2, “Compound of a reverse-turn mimetic and a production method and use therefor” (JW Pharmaceutical Corporation, priority 2010, dated 2015)

Key:
[1] = target: cDNA-expressed human hepatic CYP3A4 (Homo sapiens (Human), UniProt P08684); experiment: Measurement of CYP (IC50 of P450 CYP3A4), BFC substrate; type: in vitro ADME; settings: 20 minutes
Method: The compounds of the present invention had lower P450 CYP3A4 inhibitory activity (higher IC50). Lower CYP3A4 inhibitory activity means that the compounds of the present invention cause fewer side-effects from the pharmacological point of view.
This assay was performed in a 200 l volume in 96-well microtiter plates using cDNA-expressed human hepatic CYP3A4 (supersome, BD Gentest™ #456202). As a substrate for CYP3A4, 7-benzyloxy-4-trifluoromethyl-coumarin (BFC) was used. The compounds of Examples 1 to 5 and the substrate BFC were dissolved in 100% acetonitrile. The final volume of acetonitrile of the incubation mixture was less than 1% (volume/volume). A potassium phosphate buffer (pH 7.4, final concentration 0.1M), MgCl2 (final concentration 8.3 mM), EDTA (final concentration 1.67 mM), an inventive compound stock solution, CYP3A4 supersome, and NADPH (final concentration 0.25 mM) were added to each well. The reaction was initiated by adding the substrate (BFC, final concentration 30 µM) at 37. The incubation was performed for 20 minutes and then the reaction was terminated by the addition of 75 μl of acetonitrile: 0.5 M tris-base=4:1 (volume/volume).
Then, a fluorescent signal was measured using a fluorometer. A BFC metabolite, 7-hydroxy-4-trifluoromethyl-coumarin, was measured using an excitation wavelength of 409 nm and an emission wavelength of 530 nm.

[2] = system: MV-4-11 (human, Acute Myeloid Leukemia cell line) cells; experiment: Cell growth inhibition assay, GI50 of MV-4-11; type: cell-based; settings: Homo sapiens, MV4-11, 72 h, MV-4-11 cells
Outline: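 MV-4-11 AML cells (5×10^4/well, IMDM with 10% FBS) treated in duplicate with serially diluted compounds for 72 hours at 37 °C. Viability read as absorbance at 490 nm after CellTiter 96 Aqueous One (MTS) addition; GI50 calculated from the concentration-response.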

Sequence of cDNA-expressed human hepatic CYP3A4 (P08684 whole entry): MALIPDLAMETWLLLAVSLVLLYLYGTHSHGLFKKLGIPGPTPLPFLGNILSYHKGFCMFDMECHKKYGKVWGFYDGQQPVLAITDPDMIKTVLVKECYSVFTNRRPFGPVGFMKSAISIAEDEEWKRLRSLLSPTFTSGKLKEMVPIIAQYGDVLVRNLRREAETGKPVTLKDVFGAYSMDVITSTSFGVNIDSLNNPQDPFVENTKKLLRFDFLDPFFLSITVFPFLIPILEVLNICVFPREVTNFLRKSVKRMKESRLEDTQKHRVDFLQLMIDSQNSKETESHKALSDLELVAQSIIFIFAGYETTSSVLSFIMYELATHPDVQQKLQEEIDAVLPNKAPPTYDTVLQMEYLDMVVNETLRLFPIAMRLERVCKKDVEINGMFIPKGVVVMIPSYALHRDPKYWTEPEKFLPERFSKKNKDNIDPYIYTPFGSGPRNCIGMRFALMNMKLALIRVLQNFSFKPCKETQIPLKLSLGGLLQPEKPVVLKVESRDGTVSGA

| SMILES | IC50 [1] [µM] | GI50 [2] [µM] |
| --- | --- | --- |
| C=CCN1CC(=O)N2[C@@H](Cc3ccc(O)cc3)C(=O)N(Cc3cccc4c(-c5ccc(C(=O)NN6CCN(c7ccccn7)CC6)cc5)cn(C)c34)C[C@@H]2N1C(=O)NCc1ccccc1 [Compound D-44] | > 25 | 0.0195 |
| C=CCN1CC(=O)N2[C@@H](Cc3ccc(O)cc3)C(=O)N(Cc3cccc4c(-c5ccc(C(=O)N6CCN(C)CC6)nc5)cn(C)c34)C[C@@H]2N1C(=O)NCc1ccccc1 [Compound D-91] | 6.51 | 0.0013 |
| C=CCN1CC(=O)N2[C@@H](Cc3ccc(O)cc3)C(=O)N(Cc3cccc4c(-c5ccc(C(=O)N6CCN(S(C)(=O)=O)CC6)nc5)cn(C)c34)C[C@@H]2N1C(=O)NCc1ccccc1 [Compound D-90] | 6.96 | 0.0046 |
| C=CCN1CC(=O)N2[C@@H](Cc3ccc(O)cc3)C(=O)N(Cc3cccc4c(-c5ccc(NC(=O)NCCc6ccccc6)cc5)cn(C)c34)C[C@@H]2N1C(=O)NCc1ccccc1 [Compound D-75] | 10.5 | 0.017 |
| C=CCN1CC(=O)N2[C@@H](Cc3ccc(O)cc3)C(=O)N(Cc3cccc4c(C(=O)N5CC(N6CCC(OC)CC6)C5)cn(C)c34)C[C@@H]2N1C(=O)NCc1ccccc1 [Compound E-73] | 11.8 | 0.0193 |
| C=CCN1CC(=O)N2[C@@H](Cc3ccc(O)cc3)C(=O)N(Cc3cccc4c(C(=O)N5CCN6CCN(CC(C)C)CC6C5)cn(C)c34)C[C@@H]2N1C(=O)NCc1ccccc1 (some centres unmarked) [Compound E-45] | 3.98 | 0.0018 |
| C=CCN1CC(=O)N2[C@@H](Cc3ccc(O)cc3)C(=O)N(Cc3cccc4c(C(=O)N5CCC(N6CCOCC6)CC5)cn(C)c34)C[C@@H]2N1C(=O)NCc1ccccc1 [Compound E-65] | 2.11 | 0.013 |
| C=CCN1CC(=O)N2[C@@H](Cc3ccc(O)cc3)C(=O)N(Cc3cccc4c(-c5ccc(C(=O)Nc6cccc(C(N)=O)c6)cc5)cn(C)c34)C[C@@H]2N1C(=O)NCc1ccccc1 [Compound D-15] | 16 | 0.0028 |
| C=CCN1CC(=O)N2[C@@H](Cc3ccc(O)cc3)C(=O)N(Cc3cccc4c(-c5ccc(NC(=O)NC6CCCC6)cc5)cn(C)c34)C[C@@H]2N1C(=O)NCc1ccccc1 [Compound D-79] | 7.8 | 0.0108 |
| C=CCN1CC(=O)N2[C@@H](Cc3ccc(O)cc3)C(=O)N(Cc3cccc4c(C(=O)N5CCC(OC)CC5)cn(C)c34)C[C@@H]2N1C(=O)NCc1ccccc1 [Compound E-52] | 3.3 | 0.0092 |
| C=CCN1CC(=O)N2[C@@H](Cc3ccc(O)cc3)C(=O)N(Cc3cccc4c(-c5ccc(NC(=O)NC6CCN(C)CC6)nc5)cn(C)c34)C[C@@H]2N1C(=O)NCc1ccccc1 [Compound D-98] | 2.92 | 0.023 |
| C=CCN1CC(=O)N2[C@@H](Cc3ccc(O)cc3)C(=O)N(Cc3cccc4c(-c5ccc(C(=O)Nc6ccc(N)cc6)cc5)cn(C)c34)C[C@@H]2N1C(=O)NCc1ccccc1 [Compound D-18] | 2.42 | 0.0012 |

Further lines, results first:

| IC50 [1] [µM] | GI50 [2] [µM] | SMILES |
| --- | --- | --- |
| 3.68 | 0.016 | C=CCN1CC(=O)N2[C@@H](Cc3ccc(O)cc3)C(=O)N(Cc3cccc4c(C(=O)N(C)CCCO)cn(C)c34)C[C@@H]2N1C(=O)NCc1ccccc1 [Compound F-5] |
| 2.73 | 0.0113 | C=CCN1CC(=O)N2C(CN(Cc3cccc4c(C(=O)Nc5ccc(N6CCNCC6)nc5)cn(C)c34)C(=O)[C@@H]2Cc2ccc(O)cc2)N1C(=O)NCc1ccccc1 (some centres unmarked) [Compound G-39] |
| 3.45 | 0.0015 | C=CCN1CC(=O)N2[C@@H](Cc3ccc(O)cc3)C(=O)N(Cc3cccc4c(C(=O)Nc5ccc(N(C)CCO)nc5)cn(C)c34)C[C@@H]2N1C(=O)NCc1ccccc1 [Compound G-18] |
| 6.41 | 0.0015 | C=CCN1CC(=O)N2[C@@H](Cc3ccc(O)cc3)C(=O)N(Cc3cccc4c(-c5cnc(N(C)C)nc5)cn(C)c34)C[C@@H]2N1C(=O)NCc1ccccc1 [Compound H-7] |
| 7.1 | 0.013 | C=CCN1CC(=O)N2C(Cc3ccc(O)cc3)C(=O)N(Cc3cccc4c(C(=O)Nc5ccc(NC6CC(C)(C)N(C)C(C)(C)C6)nc5)cn(C)c34)CC2N1C(=O)NCc1ccccc1 (centres unmarked) [Compound G-52] |
| 2.53 | 0.002 | C=CCN1CC(=O)N2C(Cc3ccc(O)cc3)C(=O)N(Cc3cccc4c(C(=O)Nc5ccc(NCCN6CCCCC6)nc5)cn(C)c34)CC2N1C(=O)NCc1ccccc1 (centres unmarked) [Compound G-27] |
| 6.94 | 0.0013 | C=CCN1CC(=O)N2C(Cc3ccc(O)cc3)C(=O)N(Cc3cccc4c(C(=O)Nc5ccc(N6CCN(CCC)CC6)nc5)cn(C)c34)CC2N1C(=O)NCc1ccccc1 (centres unmarked) [Compound G-43] |
| 7.64 | 0.0013 | C=CCN1CC(=O)N2[C@@H](Cc3ccc(O)cc3)C(=O)N(Cc3cccc4c(C(=O)Nc5ccc(N6CC7CCN(C)C7C6)nc5)cn(C)c34)C[C@@H]2N1C(=O)NCc1ccccc1 (some centres unmarked) [Compound G-64] |
| 3.91 | 0.0013 | C=CCN1CC(=O)N2C(CN(Cc3cccc4c(C(=O)Nc5ccc(N6CCC7(CCN(CC)C7)C6)nc5)cn(C)c34)C(=O)[C@@H]2Cc2ccc(O)cc2)N1C(=O)NCc1ccccc1 (some centres unmarked) [Compound G-65] |
| 6.94 | 0.0013 | C=CCN1CC(=O)N2C(Cc3ccc(O)cc3)C(=O)N(Cc3cccc4c(C(=O)Nc5ccc(N6CCN(C7CC7)CC6)nc5)cn(C)c34)CC2N1C(=O)NCc1ccccc1 (centres unmarked) [Compound G-49] |
| 2.57 | 0.0119 | C=CCN1CC(=O)N2C(Cc3ccc(O)cc3)C(=O)N(Cc3cccc4c(C(=O)Nc5ccc(NCCCN6CCCC6)nc5)cn(C)c34)CC2N1C(=O)NCc1ccccc1 (centres unmarked) [Compound G-32] |
| 2.38 | 0.0014 | C=CCN1CC(=O)N2C(Cc3ccc(O)cc3)C(=O)N(Cc3cccc4c(C(=O)Nc5ccc(NCC(C)(C)C)nc5)cn(C)c34)CC2N1C(=O)NCc1ccccc1 (centres unmarked) [Compound G-22] |
| 2.56 | 0.0015 | C=CCN1CC(=O)N2[C@@H](Cc3ccc(O)cc3)C(=O)N(Cc3cccc4c(C(=O)Nc5ccc(N6CC(N7CCC(OC)CC7)C6)nc5)cn(C)c34)C[C@@H]2N1C(=O)NCc1ccccc1 [Compound G-63] |
| 2.09 | 0.0097 | C=CCN1CC(=O)N2[C@@H](Cc3ccc(O)cc3)C(=O)N(Cc3cccc4c(-c5cnc6ccccc6c5)cn(C)c34)C[C@@H]2N1C(=O)NCc1ccccc1 [Compound H-6] |
| 3.67 | 0.0023 | C=CCN1CC(=O)N2[C@@H](Cc3ccc(O)cc3)C(=O)N(Cc3cccc4c(C(=O)Nc5cnc(N6CCN(C(C)C)CC6)nc5)cn(C)c34)C[C@@H]2N1C(=O)NCc1ccccc1 [Compound G-47] |
| 9.33 | 0.0178 | C=CCN1CC(=O)N2[C@@H](Cc3ccc(O)cc3)C(=O)N(Cc3cccc4c(-c5ccc(C#N)cc5)cn(C)c34)C[C@@H]2N1C(=O)NCc1ccccc1 [Compound H-2] |
| 4.6 | 0.0013 | C=CCN1CC(=O)N2C(CN(Cc3cccc4c(C(=O)Nc5ccc(N6CCC7CCCN7C6)nc5)cn(C)c34)C(=O)[C@@H]2Cc2ccc(O)cc2)N1C(=O)NCc1ccccc1 (some centres unmarked) [Compound G-66] |
| 2.18 | 0.0107 | C=CCN1CC(=O)N2[C@@H](Cc3ccc(O)cc3)C(=O)N(Cc3cccc4c(C(=O)NCc5ccnc(N(C)C)c5)cn(C)c34)C[C@@H]2N1C(=O)NCc1ccccc1 [Compound F-48] |
| 7.4 | 0.0017 | C=CCN1CC(=O)N2C(CN(Cc3cccc4c(C(=O)Nc5ccc(CCO)cc5)cn(C)c34)C(=O)[C@@H]2Cc2ccc(O)cc2)N1C(=O)NCc1ccccc1 (some centres unmarked) [Compound G-10] |
